The test has as its system A549 cells. Put plainly: Effect of bleomycin treatment on A549 cells (western blot of protein levels). Type of test: cell-based. To be noted: BLM and/or compound, 3, 24, and 48 hours. The method, then:
A549 cells, derived from lung cancer, were incubated at different cell numbers depending on the sample treatment time. 4.5×10^5 cells (30 minutes to 12 hours), 4.0×10^5 cells (24 hours), and 3.5×10^5 cells (48 hours) were suspended in the respective media, dispensed into a 60-mm plate, and incubated for 24 hours. After 24 hours, each plate was treated with bleomycin (BLM) alone or in combination with novel flavone derivative I at a predetermined concentration. After a predetermined period of incubation, the cells were lysed with RIPA lysis buffer ([50 mM Tris]-Cl (pH, 7.4), 1% NP-40, 150 mM NaCl, 1 mM EDTA, and 1 mM phenylmethylsulfonyl fluoride (PMSF)) containing MG-132 (10 μM). Next, only the supernatant was collected by centrifugation (at 14,000 rpm for 10 minutes) at 4° C., and the proteins were separated by SDS-polyacrylamide gel electrophoresis (SDS-PAGE). The separated proteins were transferred to a polyvinylidene difluoride membrane (PVDF membrane), reacted in 5% nonfat dry milk for 3 hours, and then reacted with primary antibodies at 4° C. for 12 hours. After 12 hours, the proteins further reacted with secondary antibodies corresponding to the respective primary antibodies. Then, the protein band was examined, according to the manufacturer's protocol, using an ECL kit. […]
Background: In western blotting, separated proteins are transferred to a membrane and probed.

Results on one compound are retold here after US20240300913A1, “FLAVONE DERIVATIVE AND USE THEREOF FOR IMPROVING PULMONARY FIBROSIS” (A-CHEMBIO CO., LTD, priority 2023, published 2024).

Turning to `COc1ccc(-c2c(-c3ccc(O)c(O)c3)oc3cc(OC)c(OC)cc3c2=O)cc1` [novel flavone derivative I, 2-(3,4-dihydroxyphenyl)-6,7-dimethoxy-3-(4-methoxyphenyl)-4H-chromen-4-one], the “levels of pulmonary fibrosis-related factors (fibronectin, α-SMA, HIF-1α, NOX1, NOX2, and NOX4), increased by BLM treatment” value is given as “decreased”.
